In test [1] the test system is U266 cells. The experiment in a line: Mitochondrial transmembrane potential (TMRE assay) in U266 cells. Type of test: cell-based, human. Here is the method: The loss of mitochondrial transmembrane potential (Δψm), a marker of early apoptotic events, was determined by staining with TRME [(tetramethylrhodamine-ethyl-ester-perchlorate), Santa Cruz Biotechnology Inc.]. TMRE is a cell-permeable dye that becomes fluorescent once it is inside the mitochondria and, it can be detected using a fluorescent plate reader (Tecan). Briefly, cells (10e6 cells per assay) were treated with different concentrations of WIN-55 in presence or absence of SPT-inhibitor for 15, 30, 45 and 60 min at 37° C. After washing twice, cells were incubated for 20 min at 37° C. in the dark with 1 uM TMRE. The fluorescent intensity was read in the plate reader with excitation and emission wavelengths set at 485 and 538 nm respectively for red fluorescence. For each condition, triplicate samples (at least five times) were run, fluorescent readings were corrected for background. In all assays, CCCP (2-[2-(3-Chlorophenyl) hydrazinylyidene] propanedinitrile, a potent mitochondrial uncoupler, was used as a positive control of mitochondrial potential status.
The early loss of mitochondrial-membrane potential induced by cannabinoids. To delve into the processes that participate in cannabinoid-induced apoptosis, finally we tested whether the cannabinoid treatment induces changes on Δψm in myelomatous cells. We observed that cannabinoids induced a drop of Δψm in U266 cells (FIG. 10). […]

The subject of test [2] is U266 cells. The experiment in a line: Western blot time course of apoptotic proteins in U266 cells. Format: cell-based, human. Here is the method:
Protein analyses were performed by Western blot in several sets of assays: expression pattern of CBs-receptors in MM cell lines and primary cells, and time course after treatment with cannabinoids in MM cell lines. Time-course assays were performed at 0, 2, 6, 18 and 24 hours. Anyway, obtaining cell lysates was conducted according to a protocol adapted to phosphorylation-dependent signaling, described by Gilbert et al. (2002). Briefly, 10e7 cells per condition were harvested at indicated times, washed with iced-cold PBS and lysate in isotonic lysis buffer 30 min keeping on ice. Isotonic lysis buffer contained 2% ASB-14 (CalbioChem, San Diego, Calif., USA),1% Nonidet P-40 (Ipegal®), 137 mM NaCl, 20mM Tris-HCl pH 7.5 at 4° C. (all from Sigma-Aldrich), 2 mM Na3VO4, 20 mM NaF (New England BioLabs Inc., Ipswich, Mass., USA), 2 mM DTT (AppliChem, Darmstadt, Germany), protease inhibitor cocktail (Roche Diagnostics GmbH, Mannheim, Germany), and 10 ul Nuclease Mix (Amersham GE Healthcare, Uppsala, Sweden). After lysis, samples were centrifuged at 13,000×g for 5 min at 4° C., and supernatants collected. Protein concentration in samples was determined by Pierce® Microplate BCA Protein Assay kit-Reducing Agent Compatible (Thermo Fisher Scientific). Before loading the samples in the gel, they were diluted in loading sample buffer (0.125 M Tris-HCl pH 6.8, 4% SDS, 20% glycerol, 0.02% Bromophenol Blue, 200 mM DTT) and the mixture was heated at 70° C. for 5 min in a thermoblock (LabNet International, N.J., USA).
Samples (15-25 ug/lane) were subjected to SDS/PAGE in pre-cast polyacrylamide gels AnykD (Bio-Rad Laboratories, Hercules, CA, USA) under reducing and denaturing conditions. Electrophoretic run was performed at a constant current of 15 mA per gel in a Mini-Protean® Tetra Cell (Bio-Rad Laboratories). Once proteins were separated by electrophoresis, were transferred onto PVDF membranes using Trans-Blot® Turbo™ System (Bio-Rad Laboratories). Electrotransference was conducted at constant amperage of 1.2 mA and at up to 25 V of voltage. The blotted membranes were then blocked with 2% bovine serum albumin [(BSA), Santa Cruz Biotechnology] in Tween-Tris buffer saline (TTBS) for 30 min with gentle agitation, and incubated overnight at 4° C. with corresponding primary antibody in TTBS. After twice washing with TTBS, membranes were incubated for 1-2 h at room temperature with suitable conjugated-HRP secondary antibody, and subjected to chemiluminescence detection using Western Blotting Luminol Reagent (Santa Cruz Biotechnology). […]
The antiproliferative effect of cannabinoids is mediated by apoptotic mechanisms. […] Next, we evaluated Casp-3 activation using an antibody that recognizes the active forms of Casp-3, this is, the 17 kDa- and 12 kDa-cleaved forms. […]
On the technique in general: A western blot detects proteins with antibodies after separation by electrophoresis.

On to `CS(=O)(=O)O.Cc1c(C(=O)c2cccc3ccccc23)c2cccc3c2n1[C@H](CN1CCOCC1)CO3` [WIN-55, (R)-(+)-[2,3-dihydro-5-methyl-3-(4-morpholinylmethyl)-pyrrolo-[1,2,3]-1,4-benzoxazin-6-yl]-1-naphthalenylmethanone mesylate], for which, in test [1], the “mitochondrial membrane potential (Δψm)” value is listed as “early loss of potential of mitochondrial membrane”. Moreover, the “time after exposure at which the 89 kDa PARP fragment became detectable” value in test [2] (U266) was determined as 2 h. In test [2] (U266, time course), the “expression of the two active-cleaved forms of Casp-3 (17 kDa and 12 kDa)” value is “increased over time”. Besides, in test [2] (U266, time course 0-24 h), the “89 kDa fragment of PARP” value was “increase” and the “full-length PARP” value is “decrease”.

For the origin of these results see patent US20180353461A1, “USE OF CANNABINOIDS AS CERAMIDE-GENERATING ANTICANCER AGENTS IN TUMORS OF THE HEMATOPOIETIC AND LYMPHOID TISSUES” (priority 2014, published 2018).
